# Assay results: ChEMBL document CHEMBL3046634, “Synthesis of some 1,3,4-thiadiazole derivatives as inhibitors of Entamoeba histolytica” (Med Chem Res, 2013)
# Columns and labels:
# Entamoeba histolytica = test: Antiamoebic activity against trophozoites of Entamoeba histolytica HM-1:IMSS after 72 hr by eosin stain-based spectrophotometric analysis; assay type: functional, organism-based
# MCF7 = test: Cytotoxicity against Homo sapiens (human) MCF7 cells after 48 hr by MTT assay; assay type: cell-based; conditions: MCF7, 48 h
IC50 (Entamoeba histolytica) [µM],SMILES,IC50 (MCF7) [µM]
5.46,Nc1nnc(-c2ccccc2)s1,–
–,Cc1ncc([N+](=O)[O-])n1CCO [METRONIDAZOLE],> 250
